Experimental data published in patent US20180015455A1, “ADDITIVE CHANNELS” (Emulate Inc., priority 2016, published 2018).
“Also recorded” adds a separate entry of the source. Positions of bridges follow the written chain, without caps; N, C: chain ends. Non-standard residues stand in square brackets, D forms with d. Residues, ends and D or L forms follow the SMILES beside them. hArg = N=C(N)NCCCC[C@H](N)C(=O)O; Mpa = O=C(O)CCS

Legend:
platelets [1] = assay: Platelet activation quality control by p-selectin expression; type: cell-based, human; conditions: control blood upon activation by ADP
Protocol: To test for a thrombic event, blood was collected from 4 donors, the as blood alone or blood treated with hu5C8 alone (240 μg/mL), sCD40L (10 ng/ml) alone or with combined hu5C8/sCD40L was incubated for 20 minutes at room temperature. Each sample was further incubated for 5 minutes with fluorescent labels for platelets and fibrinogen. As a standard quality control, the control blood was tested for platelet activation using p-selection expression. We confirmed that platelets in control blood were not activated but upon activation by ADP, over 90% of platelet was positive for p-selectin.

platelets [2] = assay: Vessel-On-Chip blood perfusion: platelet coverage/aggregation by fluorescence imaging; type: cell-based, human
Protocol: (§1) Briefly, human blood was drawn in citrate buffer and used within 4 hours. Platelets were stained using fluorescently labeled non-blocking antibodies for the platelet surface marker CD41 and low dosages of fluorescent fibrinogen were added in order to visualize fibrin deposition. Blood was re-calcified in order to re-establish the full coagulation potential, then introduced in the biomimetic vessel-on-chip from the main inlet (embodiments of inlets shown in FIG. 18A-1, FIG. 18A-2 and FIG. 19C). The outlet of the chip was connected to a pulling syringe pump with a system of tubing and connectors made of medical grade silicon that excludes any metal components or potential causes of platelet activation (FIG. 5A).
Platelets were labeled with human CD41-PE antibody (10 μL/ml, Invitrogen) directly added to the blood and incubated at room temperature for 5 minutes.
A medical grade plastic reservoir was mounted on the chip, then 800 μl of the blood sample was pipetted into the reservoir. The chip was perfused with the blood by withdrawing it at a rate of 60 μl/minute using a syringe pump. The citrated blood was re-calcified 2 minutes after the beginning of each experiment by adding 100 μl/ml of a solution containing 100 mM calcium chloride and 75 mM magnesium chloride to the blood to permit calcium- and magnesium-dependent platelet function and coagulation.
(§2) Chips perfused with blood samples were immediately imaged via fluorescence microscopy (Olympus IX83, 10× objective UPLFLN10X2, Orca-Flash4.0 CMOS Camera). Each chamber was inspected along its entire length and 5 images (about 0.25 cm) were captured from the central area of the chamber. Image processing and quantification was performed with an automatic macro compiled in ImageJ and numerical values corresponding to platelet coverage or fibrin florescence were collected and statistically analyzed in Graphpad Prism V7.
(§3) A percentage of signal coverage (or Platelet coverage) was computed from the binary image as the ratio of bright pixels to the total number of pixels in the image. Image processing and quantification was performed with an automatic macro compiled in ImageJ in order to ensure unbiased signal measurements. Numerical values corresponding to platelet coverage or fibrin fluorescence (signal intensity) were collected and statistically analyzed in Graphpad Prism V7.

fibrin = assay: Vessel-On-Chip blood perfusion: fibrin deposition (fluorescent fibrinogen); type: cell-based, human
Protocol: as §1
When analyzing the formation of fibrin, […] of fluorescently labeled fibrinogen (Alexa 488, Invitrogen) was also added to the blood. While fluorescent fibrinogen was barely detected as a diffused fluorescence, fibrin deposition on inflamed cells and sparse clots was easily distinguished since fibrin formed filamentous structures produce a signal intensity that is clearly observed above a background threshold.
as §2, with “Each chamber was inspected along its entire length and 5 images (about 0.25 cm) were captured from the central area of the chamber.” left out
as §3

[3] = tested on: thrombin anti-thrombin complex (TAT); assay: Thrombin anti-thrombin (TAT) ELISA in chip effluent plasma; type: cell-based, human
Protocol: Thrombin converts fibrinogen into fibrin during clot formation, and anti-thrombin plays a role in maintaining homeostasis by inhibiting the effect of thrombin. Formation of TAT in the microdevice confirms that local and intrinsic generation of thrombin, a potent platelet agonist, occurs in the model and that counter regulatory mechanisms for coagulation are retained. Thus, blood sampled from the Vessel-On-Chip was analyzed for thrombin anti-thrombin complex (TAT), an accepted clinical biomarker for procoagulation^48,49. TAT refers to a factor released upon activation of the coagulation cascade and one of the biomarkers associated with thrombotic events occurring in patients affected with deep vein thrombosis (DVT) or Systemic lupus erythematosus (SLE)^45,46. An enzyme-linked immunosorbent assay (ELISA) was used to quantify the thrombin anti-thrombin complex (TAT).
Thrombin Anti-Thrombin (TAT) levels were analyzed in plasma from blood flowing out of the chip device by removing a sample from the outflow port. Thus TAT levels were evaluated in sample effluents collected from the outflow port of the chip using the Human TAT ELISA Kit (Siemens Healthineers) according to the user manual.
Blood sampled from the Vessel-On-Chip outflow port was analyzed for thrombin anti-thrombin complex (TAT), a factor released upon activation of the coagulation cascade and one of the biomarkers associated with thrombotic events occurring in patients affected with deep vein thrombosis (DVT) or SLE^45,46. TAT is an accepted clinical biomarker for procoagulation^48,49. An enzyme-linked immunosorbent assay (ELISA) was used to quantify the thrombin anti-thrombin complex (TAT).

ICAM1 = ICAM1 immunostaining of endothelium; type: cell-based, human; conditions: TNF-α stimulated endothelium
FcγRIIa = target: T1, FcγRIIa (Homo sapiens, UniProt P12318); assay: Vessel-On-Chip hu5C8-mediated thrombosis, FcγRIIa dependence (platelet coverage, fibrin deposition, TAT); type: cell-based; conditions: FcγRIIa blocked with IV.3 (1 μg/ml) or non-FcγRIIa binding IgG2σ variant, with sCD40L 10 ng/ml
T1 construct: Blood from several human donors were aliquoted into groups for the following treatments; host or cells: platelets in citrated human whole blood from donors, perfused over HUVEC-lined chips
T1 sequence (P12318 34-317): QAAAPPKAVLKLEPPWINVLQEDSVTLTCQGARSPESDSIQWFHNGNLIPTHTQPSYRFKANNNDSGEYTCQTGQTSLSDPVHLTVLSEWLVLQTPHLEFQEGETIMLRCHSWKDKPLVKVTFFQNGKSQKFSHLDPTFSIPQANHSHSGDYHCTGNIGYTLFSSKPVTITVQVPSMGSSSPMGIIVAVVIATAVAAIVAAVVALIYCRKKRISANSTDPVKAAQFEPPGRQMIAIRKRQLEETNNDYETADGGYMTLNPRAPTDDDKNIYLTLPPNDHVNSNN
Source text: Recent studies conducted on humanized mice expressing the human Fcγ receptors (FCGR2A) have shown that this receptor plays a role in thrombosis leading to the IC-mediated toxicity^12,16,21. […] In order to investigate if the ICs-induced thrombosis that we observed in our vessel-on-chip system also relies on an Fc-mediated mechanism, we used two different tool molecules: IgG2a and IV.3 (FIG. 25A). The IgG2σ variant of hu5C8 has an engineered Fc region^48 that eliminates affinity for the FcγRIIa, while the monoclonal antibody IV.3 is a blocking antibody binding to FcγRIIa. Briefly, equimolar concentrations of IgG2σ or hu5c8 were incubated with 10 ng/ml of sCD40L for 20 minutes to form ICIgG2σ or IC5c8, respectively.
Some of the blood samples were treated with IV.3 (1 μg/ml) for 10 minutes to block the FcγRIIa, and then incubated for 20 more minutes with ICs. Finally, blood alone (control) or blood incubated with IC5c8, ICIgG2σ or IV.3 was perfused through the biomimetic microfluidic-on-chip for about 10 minutes. We tested 15 donors and all the tested conditions described above were tested in duplicates and analyzed as percentage of platelet coverage based on fluorescence microscopic imaging (FIG. 25B). Five of the donors were also tested for fibrin deposition (FIG. 25C). Finally, effluents plasma obtained from a total of 7 of the donors (including the 5 mentioned before) were used to assess TAT via ELISA (FIG. 25D). […]
Blood from several human donors were aliquoted into groups for the following treatments: controls (PBS), sCD40L, combined hu5C8/sCD40L, combined hu5C8 (IgG2σ)/sCD40L combined, and combined hu5C8/sCD40L/IV.3. Each condition was tested with a minimum of 3 donors to a maximum of 15 donors, and all conditions were tested in duplicates and analyzed for platelet coverage (FIG. 25B), fibrin deposition (FIG. 25C), or increased formation of TAT measured in the eluates (FIG. 25D). […]

[4] = hu5C8: lupus nephritis clinical study; IDEC-131: Crohn's disease clinical trial; cited from earlier work
[5] = Eptifibatide 2 ug/ml, endothelium inflamed with TNF-α, n=4
[6] = pro-thrombotic stimulus vs blood alone, TNF-α 50 ng/ml 6 hours on endothelium, sCollagen 10 μg/ml in blood

With `Nc1ncnc2c1ncn2[C@@H]1O[C@H](COP(=O)(O)OP(=O)(O)O)[C@@H](O)[C@H]1O` [ADP] the “platelets positive for p-selectin” value (platelets [1]) was “over 90%”.

In the case of `N=C(N)NCCCC[C@@H]1NC(=O)CCSSC[C@@H](C(N)=O)NC(=O)[C@@H]2CCCN2C(=O)[C@H](Cc2c[nH]c3ccccc23)NC(=O)[C@H](CC(=O)O)NC(=O)CNC1=O` [Eptifibatide] ([Mpa][hArg]GDWPC-NH2; disulfide 1-7), the “inhibition of platelet aggregation” value (platelets [2]; [5]) is reported as “significantly inhibited”, the “inhibitory effect on platelet aggregation and fibrin clot formation” value (platelets [2]; Eptifibatide 2 ug/ml, following treatment with sCollagen, n=4) is reported as “comparatively modest” and the “platelet adhesion (image analysis of multiple experiments)” value (platelets [2]; Eptifibatide 2 ug/ml, n=4) is reported as “completely inhibited”. For the same compound, the “effect on platelet coverage and fibrin deposition in stimulated, pro-thrombotic conditions” value (platelets [2]; Eptifibatide added, TNF-α or sCollagen, n=4) was “suppressed; also recorded: inhibited”, the “inhibition of fibrin clot formation” value (fibrin; [5]) was “significantly inhibited” and the “fibrin signal remaining with Eptifibatide” value (fibrin; Eptifibatide 2 ug/ml, samples treated with TNF-α) was “still detectable”. The “effect on TAT increment associated with TNF-α-induced inflammation” value ([3]; Eptifibatide treatment) was “did not inhibit” and the “effect on TAT increment due to sCollagen treatment” value ([3]; Eptifibatide treatment) was “entirely suppressed”.

In the case of TNF-α, the platelet coverage (platelets [2]; [6]) is reported as “significantly increased”, the “fibrin deposition / fibrin signal intensity” value (fibrin; [6]) is reported as “significantly increased” and the “levels of TAT in outflow samples” value ([3]; after treatment, FIG. 22B) is reported as “significantly increased; also recorded: elevated levels”. The “ICAM1 expression in the endothelium compared to control” value (ICAM1) was “increased expression; also recorded: higher”.

For “hu5C8 (IgG2σ): IgG2σ variant of hu5C8 with an engineered Fc region that eliminates affinity for FcγRIIa”, the “hu5C8-mediated thrombosis on-chip (all endpoints)” value (“hu5C8-mediated thrombosis on-chip” for short) (FcγRIIa) was “did not show signs of thrombosis”, the “hu5C8-mediated thrombosis on-chip” value (FcγRIIa; listed as IgG2σ) was “suppressed” and the “hu5C8-mediated thrombosis on-chip” value (FcγRIIa; listed as hu5C8-IgG2σ) was “not detected”.

For “hu5C8: humanized monoclonal IgG1 antibody against CD40L (anti-CD154)”, the “treatment-related effects compared to untreated blood” value (platelets [2]; hu5C8 alone 240 μg/mL or sCD40L alone 10 ng/ml, 4 donors, 60 μl/minute) is listed as “no significant treatment-related effects” and the “incidence of thromboembolic events” value [4] is listed as 2/18.
